Test [1] is described as follows: Inhibition of c-MET in human DU145 cells by scattering assay.
Test [2] can be described thus: Inhibition of c-MET in human A549 cells by wound healing assay.

Usually IC50 stands for the concentration needed to halve the response being measured. Lower therefore signals greater potency in that assay. Consider `Cn1cnc(-c2cc3nccc(Oc4ccc(NC(CC(=O)Nc5ccc(F)cc5)C(F)(F)F)cc4F)c3s2)c1` (stereo unspecified) [4,4,4-trifluoro-3-(3-fluoro-4-(2-(1-methyl-1H-imidazol-4-yl)thieno[3,2-b]pyridin-7-yloxy)phenylamino)-N-(4-fluorophenyl)butanamide], for which the IC50 in test [1] and in test [2] was 400 nM each time.
For `COc1ccccc1NC(=O)CC(Nc1ccc(Oc2ccnc3cc(-c4cn(C)cn4)sc23)c(F)c1)C(F)(F)F` (stereo unspecified) [4,4,4-trifluoro-3-(3-fluoro-4-(2-(1-methyl-1H-imidazol-4-yl)thieno[3,2-b]pyridin-7-yloxy)phenylamino)-N-(2-methoxyphenyl)butanamide], the IC50 is 10000 nM in test [1] and 2000 nM in test [2].
As to `Cn1cnc(-c2cc3nccc(Oc4ccc(NC(CC(=O)Nc5ccc(F)cc5)C(F)(F)F)cc4)c3s2)c1` (stereo unspecified) [4,4,4-trifluoro-N-(4-fluorophenyl)-3-(4-(2-(1-methyl-1H-imidazol-4-yl)thieno[3,2-b]pyridin-7-yloxy)phenylamino)butanamide], the IC50 in test [1] and in test [2] was 2000 nM throughout.

The record behind these values is BindingDB's records for doi:10.1016/j.bmcl.2009.12.099 (Methylgene, 2010).
